Laboratory results from patent US11746116B2, “Antibiotic resistance breakers” (KING'S COLLEGE LONDON, priority 2017, dated 2023).
Converted amounts (≈) assume the structure as drawn. Where two headings read alike, the source gives them in different places.

Experiments:
[1] = test system: EMRSA16; assay: MIC, microdilution broth method; assay type: cell-based, Staphylococcus aureus
[2] = test system: EMRSA15; assay: MIC, microdilution broth method; assay type: cell-based, Staphylococcus aureus
[3] = test system: VSE775; assay: MIC, microdilution broth method; assay type: cell-based, Enterococcus faecalis; details: VSE775; in µg/mL
[4] = test system: MSSA9144; assay: MIC, microdilution broth method; assay type: cell-based, Staphylococcus aureus; details: MSSA9144; in µg/mL
[5] = test system: VRE12201; assay: MIC, microdilution broth method; assay type: cell-based, Enterococcus faecalis; details: VRE12201; in µg/mL
[6] = test system: VRE12204; assay: MIC, microdilution broth method; assay type: cell-based, Enterococcus faecium; details: VRE12204; in µg/mL
[7] = test system: Ab17978; assay: MIC, microdilution broth method; assay type: cell-based; details: Ab17978; Normal (no PMBN); in µg/mL
[8] = test system: M6; assay: MIC, microdilution broth method; assay type: cell-based; details: M6; Normal (no PMBN); in µg/mL
[9] = test system: extended bacterial panel; assay: MIC against an extended bacterial panel (Table 15); assay type: cell-based

## O=C(O)c1cn(C2CC2)c2cc(N3CCN(Cc4ccc(I)cc4)CC3)c(F)cc2c1=O
[1]; EMRSA16, in µg/mL
  MIC: 4
[2]; EMRSA15, in µg/mL
  MIC: 4
[3]
  MIC: 2
[4]
  MIC: 0.12-0.25
[5]
  MIC: 1-2
[6]
  MIC: 4

## O=C(O)c1cn(C2CC2)c2cc(N3CCN(Cc4ccc(-n5cncn5)cc4)CC3)c(F)cc2c1=O [Compound 2.36, 7-(4-(4-(1H-1,2,4-triazol-1-yl)benzyl)piperazin-1-yl)-1-cyclopropyl-6-fluoro-4-oxo-1,4-dihydroquinoline-3-carboxylic acid]
[1]; EMRSA16, in µg/mL
  MIC: 16
[2]; EMRSA15, in µg/mL
  MIC: 16-32
[3]
  MIC: 1
[4]
  MIC: 0.12
[5]
  MIC: 0.5
[6]
  MIC: 8

## CCn1cc(C(=O)O)c(=O)c2cc(F)c(N3CCN(Cc4ccc(-n5cncn5)cc4)CC3)cc21 [Compound 3.32, 7-(4-(4-(1H-1,2,4-triazol-1-yl)benzyl)piperazin-1-yl)-1-ethyl-6-fluoro-4-oxo-1,4-dihydroquinoline-3-carboxylic acid]
[3]
  MIC: 8
[4]
  MIC: 1
[5]
  MIC: 8
[6]
  MIC: 16

## CCn1cc(C(=O)O)c(=O)c2cc(F)c(N3CCNCC3)nc21 [Enoxacin, enoxacin, reference compound]
[3]
  MIC: 16
[4]
  MIC: 2
[5]
  MIC: 8
[6]
  MIC: 4-8

## C[C@H]1COc2c(N3CC[C@@H](N)C3)c(F)cc3c(=O)c(C(=O)O)cn1c23 [KSN-L44]
[1]; EMRSA16 (Table 16, role of the terminal pyrimidine ring), in µg/mL
  MIC, EMRSA16: 32
[2]; EMRSA15 (Table 16, role of the terminal pyrimidine ring), in µg/mL
  MIC, EMRSA15: 32

## O=C(O)c1cn(C2CC2)c2cc(N3CCN(Cc4ccc(F)c5ccccc45)CC3)c(F)cc2c1=O [ML-77-048]
[1]; EMRSA16, in µg/mL
  MIC: 8
[2]; EMRSA15, in µg/mL
  MIC: 4
[3]
  MIC: 8
[4]
  MIC: 4
[5]
  MIC: 8
[7]
  MIC: 8
[8]
  MIC: 64

## O=C(O)c1cn(C2CC2)c2cc(N3CCN(Cc4cccc5cccnc45)CC3)c(F)cc2c1=O [ML-77-052]
[2]; EMRSA15, in µg/mL
  MIC: 64
[3]
  MIC: 4
[4]
  MIC: 0.5
[5]
  MIC: 2
[7]
  MIC: 0.25
[8]
  MIC: 4

## O=C(O)c1cn(C2CC2)c2cc(N3CCN(Cc4cc(=O)[nH]c5ccccc45)CC3)c(F)cc2c1=O [ML-77-058]
[4]
  MIC: 0.25-1
[5]
  MIC: 0.5-4
[8]
  MIC: 4-32

## C[C@H]1COc2c(N3CCCN(c4ncc(F)cn4)CC3)c(F)cc3c(=O)c(C(=O)O)cn1c23 [ML-83-034]
[1]; Staphylococcus aureus (EMRSA16), Table 12, read-out: MIC
  MIC: 16 mg/L (≈ 35 µM)
[2]; Staphylococcus aureus, Staphylococcus aureus (EMRSA15), Table 12, read-out: MIC
  MIC: 8 mg/L (≈ 17.5 µM)

## CN[C@H](CC(C)C)C(=O)N[C@H]1C(=O)N[C@@H](CC(N)=O)C(=O)N[C@H]2C(=O)N[C@H]3C(=O)N[C@H](C(=O)N[C@H](C(=O)O)c4cc(O)cc(O)c4-c4cc3ccc4O)[C@H](O)c3ccc(c(Cl)c3)Oc3cc2cc(c3O[C@@H]2O[C@H](CO)[C@@H](O)[C@H](O)[C@H]2O[C@H]2C[C@](C)(N)[C@H](O)[C@H](C)O2)Oc2ccc(cc2Cl)[C@H]1O [Vancomycin, vancomycin, reference compound]
[9]; Staphylococcus aureus, ATCC10390, Staphylococcus aureus ATCC 10390
  MIC: 1 mg/L (≈ 0.69 µM)
[9]; Staphylococcus aureus, ATCC 13709 / MRSA, Staphylococcus aureus ATCC 13709, MRSA
  MIC: 0.5 mg/L (≈ 0.345 µM)
[9]; Staphylococcus aureus, ATCC19636, Staphylococcus aureus Smith, ATCC 19636
  MIC: 0.5 mg/L (≈ 0.345 µM)
[9]; Staphylococcus aureus, ATCC27660, Staphylococcus aureus ATCC 27660
  MIC: 0.5 mg/L (≈ 0.345 µM)
[9]; Staphylococcus aureus, ATCC29213, Staphylococcus aureus ATCC 29213
  MIC: 0.5 mg/L (≈ 0.345 µM)
[9]; Staphylococcus aureus, ATCC29213, Staphylococcus aureus ATCC 29213 with 50% human serum
  MIC: 1 mg/L (≈ 0.69 µM)
[9]; Staphylococcus aureus, ATCC 33591 / MRSA, Staphylococcus aureus ATCC 33591, MRSA
  MIC: 0.5 mg/L (≈ 0.345 µM)
[9]; Staphylococcus aureus, ATCC 33592 / MRSA, Staphylococcus aureus ATCC 33592, MRSA
  MIC: 0.5 mg/L (≈ 0.345 µM)
[9]; Staphylococcus aureus, ATCC33594, Staphylococcus aureus ATCC 33594
  MIC: 0.5 mg/L (≈ 0.345 µM)
[9]; Staphylococcus aureus, ATCC49230, Staphylococcus aureus ATCC 49230
  MIC: 0.5 mg/L (≈ 0.345 µM)
[9]; Staphylococcus aureus, BAA-1556 / MRSA / USA300, Staphylococcus aureus FPR3757, BAA-1556, USA300 MRSA
  MIC: 0.5 mg/L (≈ 0.345 µM)
[9]; Staphylococcus aureus, BAA-1707 / MRSA / USA400, Staphylococcus aureus MW2, BAA-1707, USA400 MRSA
  MIC: 0.5 mg/L (≈ 0.345 µM)
[9]; Staphylococcus aureus, BAA-1717 / MRSA / USA300, Staphylococcus aureus TCH1516, BAA-1717, USA300 MRSA
  MIC: 0.5 mg/L (≈ 0.345 µM)
[9]; Staphylococcus aureus, MRSA / NRS 71, Staphylococcus aureus NRS71, MRSA
  MIC: 0.25 mg/L (≈ 0.173 µM)
[9]; Staphylococcus aureus, MRSA / NRS 119, Staphylococcus aureus NRS119, MRSA LZD-NS
  MIC: 1 mg/L (≈ 0.69 µM)
[9]; Staphylococcus aureus, MRSA / NRS 123 / USA400, Staphylococcus aureus NRS123, USA400 MRSA
  MIC: 0.5 mg/L (≈ 0.345 µM)
[9]; Staphylococcus aureus, MRSA / NRS 127, Staphylococcus aureus NRS127, MRSA LZD-NS
  MIC: 1 mg/L (≈ 0.69 µM)
[9]; Staphylococcus aureus, MRSA / NRS 271, Staphylococcus aureus E-MRSA 15, NRS271, MRSA LZD-NS
  MIC: 0.5 mg/L (≈ 0.345 µM)
[9]; Staphylococcus aureus, MRSA / NRS 382 / USA100, Staphylococcus aureus NRS382, USA100 MRSA
  MIC: 1 mg/L (≈ 0.69 µM)
[9]; Staphylococcus aureus, MRSA / NRS 383 / USA200, Staphylococcus aureus NRS383, USA200 MRSA TIG-NS
  MIC: 0.5 mg/L (≈ 0.345 µM)
[9]; Staphylococcus aureus, MRSA / NRS 384 / USA300, Staphylococcus aureus NRS384, USA300 MRSA
  MIC: 0.5 mg/L (≈ 0.345 µM)
[9]; Staphylococcus aureus, MRSA / NRS 385 / USA500, Staphylococcus aureus NRS385, USA500 MRSA
  MIC: 0.5 mg/L (≈ 0.345 µM)
[9]; Staphylococcus aureus, MRSA / NRS 386 / USA700, Staphylococcus aureus NRS386, USA700 MRSA
  MIC: 0.5 mg/L (≈ 0.345 µM)
[9]; Staphylococcus aureus, MRSA / NRS 387 / USA800, Staphylococcus aureus NRS387, USA800 MRSA
  MIC: 1 mg/L (≈ 0.69 µM)
[9]; Staphylococcus aureus, MRSA / NRS 483, Staphylococcus aureus NRS483, USA1000 MRSA
  MIC: 0.5 mg/L (≈ 0.345 µM)
[9]; Staphylococcus aureus, MRSA / NRS 484, Staphylococcus aureus NRS484, USA1100 MRSA
  MIC: 1 mg/L (≈ 0.69 µM)
[9]; Staphylococcus aureus, MRSA, Staphylococcus aureus ECL 2963621, MRSA DAP-NS
  MIC: 1 mg/L (≈ 0.69 µM)
[9]; Staphylococcus aureus, MRSA, Staphylococcus aureus ECL 2963667, MRSA DAP-NS
  MIC: 1 mg/L (≈ 0.69 µM)
[9]; Staphylococcus aureus, MRSA, Staphylococcus aureus ECL 2963743, MRSA DAP-NS
  MIC: 1 mg/L (≈ 0.69 µM)
[9]; Staphylococcus aureus, MRSA, Staphylococcus aureus R136
  MIC: 0.5 mg/L (≈ 0.345 µM)
[9]; Staphylococcus aureus, NRS72, Staphylococcus aureus Sanger-476, NRS72
  MIC: 0.5 mg/L (≈ 0.345 µM)
[9]; Staphylococcus aureus, NRS157, Staphylococcus aureus NRS157
  MIC: 0.5 mg/L (≈ 0.345 µM)
[9]; Staphylococcus aureus, Staphylococcus aureus 6538P
  MIC: 0.125 mg/L (≈ 0.0863 µM)
[9]; Staphylococcus epidermidis, ATCC12228, Staphylococcus epidermidis ATCC 12228
  MIC: 0.5 mg/L (≈ 0.345 µM)
[9]; Staphylococcus epidermidis, ATCC51625, Staphylococcus epidermidis CCF 15990, ATCC 51625
  MIC: 1 mg/L (≈ 0.69 µM)
[9]; Staphylococcus epidermidis, NRS101, Staphylococcus epidermidis NRS101
  MIC: 1 mg/L (≈ 0.69 µM)
[9]; Staphylococcus haemolyticus, ATCC29970, Staphylococcus haemolyticus ATCC 29970
  MIC: 1 mg/L (≈ 0.69 µM)
[9]; Staphylococcus intermedius, ATCC29663, Staphylococcus intermedius ATCC 29663
  MIC: 1 mg/L (≈ 0.69 µM)
[9]; Staphylococcus saprophyticus, ATCC15305, Staphylococcus saprophyticus ATCC 15305
  MIC: 0.5 mg/L (≈ 0.345 µM)
[9]; Strepotococcus pyogenes ATCC 14289
  MIC: 0.25 mg/L (≈ 0.173 µM)
[9]; Strepotococcus pyogenes ATCC 19615
  MIC: 0.25 mg/L (≈ 0.173 µM)
[9]; Streptococcus agalactiae, ATCC12386, Streptococcus agalactiae ATCC 12386
  MIC: 0.5 mg/L (≈ 0.345 µM)
[9]; Streptococcus mutans, ATCC25175, Streptococcus mutans ATCC 25175
  MIC: 2 mg/L (≈ 1.38 µM)
[9]; Streptococcus oralis, ATCC9811, Streptococcus oralis ATCC 9811
  MIC: 0.5 mg/L (≈ 0.345 µM)
[9]; Streptococcus pneumoniae, ATCC6301, Streptococcus pneumoniae ATCC 6301
  MIC: 0.25 mg/L (≈ 0.173 µM)
[9]; Streptococcus pneumoniae, ATCC49619, Streptococcus pneumoniae ATCC 49619
  MIC: 0.25 mg/L (≈ 0.173 µM)
[9]; Streptococcus pneumoniae, ATCC51916, Streptococcus pneumoniae Tenessee 23F, ATCC 51916, MDR
  MIC: 0.25 mg/L (≈ 0.173 µM)
[9]; Streptococcus pneumoniae, ATCC700669, Streptococcus pneumoniae SP264, ATCC 700669, ST 23F
  MIC: 0.25 mg/L (≈ 0.173 µM)
[9]; Streptococcus pneumoniae, ATCC700673, Streptococcus pneumoniae Hungary 19A, ATCC 700673, MDR
  MIC: 0.25 mg/L (≈ 0.173 µM)
[9]; Streptococcus pneumoniae, ATCC700675, Streptococcus pneumoniae S. Africa 6B-8, ATCC 700675
  MIC: 0.25 mg/L (≈ 0.173 µM)
[9]; Streptococcus pneumoniae, ATCC700676, Streptococcus pneumonia England ST14-9 ATCC 700676, ERY-R
  MIC: 0.25 mg/L (≈ 0.173 µM)
[9]; Streptococcus pneumoniae, ATCC 700677 / PRSP, Streptococcus pneumoniae CSR 14-10, ATCC 700677, PRSP
  MIC: 0.25 mg/L (≈ 0.173 µM)
[9]; Streptococcus pneumoniae, PRSP, Streptococcus pneumoniae TM532
  MIC: 0.25 mg/L (≈ 0.173 µM)
[9]; Streptococcus salivarius, ATCC13419, Streptococcus salivarius ATCC 13419
  MIC: 0.5 mg/L (≈ 0.345 µM)
[9]; Streptococcus sanguinis, ATCC10556, Streptococcus sanguinis ATCC 10556
  MIC: 0.5 mg/L (≈ 0.345 µM)
